Results from patent US10221161B2, “Inhibitors of plasma kallikrein” (Kalvista Pharmaceuticals Limited, priority 2013, dated 2019).

Key:
Human KLK1 = Human KLK1 (Homo sapiens (Human), UniProt P06870); test: Determination of the IC50 for KLK1 (fluorogenic substrate H-DVal-Leu-Arg-AFC); type: biochemical; conditions: human KLK1, 37° C.
Experimental: Selected compounds were further screened for inhibitory activity against the related enzyme KLK1. The ability of the compounds of formula (I) to inhibit KLK1 may be determined using the following biological assay:
Determination of the IC50 for KLK1
KLK1 inhibitory activity in vitro was determined using standard published methods (see e.g. Johansen et al., Int. J. Tiss. Reac. 1986, 8, 185; Shori et al., Biochem. Pharmacol., 1992, 43, 1209; Stürzebecher et al., Biol. Chem. Hoppe-Seyler, 1992, 373, 1025). Human KLK1 (Callbiochem) was incubated at 37° C. with the fluorogenic substrate H-DVal-Leu-Arg-AFC and various concentrations of the test compound. Residual enzyme activity (initial rate of reaction) was determined by measuring the change in optical absorbance at 410 nm and the IC50 value for the test compound was determined.

Human plasma kallikrein = Human plasma kallikrein (Homo sapiens (Human), UniProt P03952); test: Determination of the IC50 for plasma kallikrein (fluorogenic substrate H-DPro-Phe-Arg-AFC); type: biochemical; conditions: 37° C., read-out: IC50 (human PKal)
Experimental: Determination of the IC50 Plasma Kallikrein Plasma kallikrein inhibitory activity in vitro was determined using standard published methods (see e.g. Johansen et al., Int. J. Tiss. […] Shori et al., Biochem. Pharmacol., 1992, 43, 1209; Stürzebecher et al., Biol. Chem. Hoppe-Seyler, 1992, 373, 1025). Human plasma kallikrein (Protogen) was incubated at 37° C. with the fluorogenic substrate […] and various concentrations of the test compound.

Chain of Human KLK1 (P06870 25-262): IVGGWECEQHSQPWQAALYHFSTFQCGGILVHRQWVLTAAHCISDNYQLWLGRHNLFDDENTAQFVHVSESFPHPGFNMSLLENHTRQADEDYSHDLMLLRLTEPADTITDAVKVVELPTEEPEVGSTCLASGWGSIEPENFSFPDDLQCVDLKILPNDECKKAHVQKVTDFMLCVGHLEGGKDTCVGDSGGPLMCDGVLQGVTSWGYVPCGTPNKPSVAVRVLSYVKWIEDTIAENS
Chain of Human plasma kallikrein (P03952 391-638 limits assumed): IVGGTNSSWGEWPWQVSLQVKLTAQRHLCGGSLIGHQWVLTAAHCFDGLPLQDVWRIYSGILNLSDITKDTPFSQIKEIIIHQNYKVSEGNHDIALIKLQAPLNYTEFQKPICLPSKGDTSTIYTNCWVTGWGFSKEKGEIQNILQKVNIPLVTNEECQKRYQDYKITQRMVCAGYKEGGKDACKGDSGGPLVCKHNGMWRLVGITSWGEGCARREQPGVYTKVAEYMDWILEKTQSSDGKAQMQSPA
Chain of Human plasma kallikrein (P03952 20-390 partner limits assumed): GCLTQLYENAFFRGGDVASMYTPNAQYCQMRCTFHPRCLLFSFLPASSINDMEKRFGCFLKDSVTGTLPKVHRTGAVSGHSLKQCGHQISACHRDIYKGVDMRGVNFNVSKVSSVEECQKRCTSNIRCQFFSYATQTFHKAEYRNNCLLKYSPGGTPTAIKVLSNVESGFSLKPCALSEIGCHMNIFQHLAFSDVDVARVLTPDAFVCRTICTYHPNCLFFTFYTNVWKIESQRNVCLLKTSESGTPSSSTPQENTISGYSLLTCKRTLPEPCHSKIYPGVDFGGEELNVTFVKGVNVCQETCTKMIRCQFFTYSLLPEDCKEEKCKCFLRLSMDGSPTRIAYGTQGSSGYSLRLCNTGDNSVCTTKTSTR

Structure (SMILES)	IC50 (Human KLK1)	IC50 (Human plasma kallikrein)
CN(C)[C@H]1CCN(c2ccc(Cc3cncc(C(=O)NCc4ccc5c(N)nccc5c4)c3)cn2)C1 (stereo in doubt) [Example 68, N-[(1-Aminoisoquinolin-6-yl)methyl]-5-({6-[3-(dimethylamino)pyrrolidin-1-yl]pyridin-3-yl}methyl)pyridine-3-carboxamide]	3510 nM	375 nM
CN(C)[C@@H]1CCN(c2ccc(Cc3cncc(C(=O)NCc4ccc5c(N)nccc5c4)c3)cn2)C1 (stereo in doubt) [Example 69, N-[(1-Aminoisoquinolin-6-yl)methyl]-5-({6-[3-(dimethylamino)pyrrolidin-1-yl]pyridin-3-yl}methyl)pyridine-3-carboxamide]	2430 nM	579 nM
CN(C)[C@@H]1CCN(c2cc(Cc3cncc(C(=O)NCc4ccc5c(N)nccc5c4)c3)ccn2)C1 (stereo in doubt) [Example 90, N-[(1-Aminoisoquinolin-6-yl)methyl]-5-({2-[3-(dimethylamino)pyrrolidin-1-yl]pyridin-4-yl}methyl)pyridine-3-carboxamide]	3880 nM	1550 nM
CN(C)[C@H]1CCN(c2cc(Cc3cncc(C(=O)NCc4ccc5c(N)nccc5c4)c3)ccn2)C1 (stereo in doubt) [Example 91, N-[(1-Aminoisoquinolin-6-yl)methyl]-5-({2-[3-(dimethylamino)pyrrolidin-1-yl]pyridin-4-yl}methyl)pyridine-3-carboxamide]	2110 nM	1710 nM
Cc1cnn(Cc2ccc(Cc3cncc(C(=O)NCc4ccc5c(N)nccc5c4)c3)cc2)c1 [Example 1, N-[(1-Aminoisoquinolin-6-yl)methyl]-({4-[(4-methylpyrazol-1-yl)methyl]phenyl}methyl)pyridine-3-carboxamide]	> 10000 nM	
Cc1cnn(Cc2ccc(Cc3cncc(C(=O)NCc4cnc5[nH]ccc5c4)c3)cc2)c1 [Example 2]	> 10000 nM	
Cc1cnn(Cc2ccc(Cc3ccnc(C(=O)NCc4ccc5c(N)nccc5c4)c3)cc2)c1 [Example 3, N-[(1-Aminoisoquinolin-6-yl)methyl]-4-({4-[(4-methylpyrazol-1-yl)methyl]phenyl}methyl)pyridine-2-carboxamide]	> 40000 nM	159 nM
Cc1cnn(Cc2ccc(Cc3ccnc(C(=O)NCc4cnc5[nH]ccc5c4)c3)cc2)c1 [Example 4]	> 40000 nM	
Nc1nccc2cc(CNC(=O)c3ccc(=O)n(Cc4ccc(Cn5ccccc5=O)cc4)c3)ccc12 [Example 5, N-[(1-Aminoisoquinolin-6-yl)methyl]-6-oxo-1-({4-[(2-oxopyridin-1-yl)methyl]phenyl}methyl)pyridine-3-carboxamide]	28900 nM	24.7 nM
Cc1cnn(Cc2ccc(C(O)c3cncc(C(=O)NCc4ccc5c(N)nccc5c4)c3)cc2)c1 (centres unmarked) [Example 7, N-((1-Aminoisoquinolin-6-yl)methyl)-5-(hydroxy(4-((4-methyl-1H-pyrazol-1-yl)methyl)phenyl)methyl)nicotinamide]	8020 nM	35.3 nM
Cc1cnn(Cc2ccc(Cc3cc(C(=O)NCc4ccc5c(N)nccc5c4)ncn3)cc2)c1 [Example 8, N-[(1-Aminoisoquinolin-6-yl)methyl]-6-({4-[(4-methylpyrazol-1-yl)methyl]phenyl}methyl)pyrimidine-4-carboxamide]	28200 nM	119 nM
Cc1cnn(Cc2ccc(Cc3cncc(C(=O)NCc4ccc5c(N)nccc5c4)n3)cc2)c1 [Example 9, N-[(1-Aminoisoquinolin-6-yl)methyl]-6-({4-[(4-methylpyrazol-1-yl)methyl]phenyl}methyl)pyrazine-2-carboxamide]	5340 nM	30.8 nM
Cc1ccc2cc(Cc3cncc(C(=O)NCc4ccc5c(N)nccc5c4)n3)ccc2n1 [Example 10, N-[(1-Aminoisoquinolin-6-yl)methyl]-6-[(2-methylquinolin-6-yl)methyl]pyrazine-2-carboxamide]	3020 nM	194 nM
Cc1cnn(Cc2ccc(Cc3cnnc(C(=O)NCc4ccc5c(N)nccc5c4)c3)cc2)c1 [Example 11, N-[(1-Aminoisoquinolin-6-yl)methyl]-5-({4-[(4-methylpyrazol-1-yl)methyl]phenyl}methyl)pyridazine-3-carboxamide]	37100 nM	82.3 nM
Cc1cnn(Cc2ccc(Cc3cncc(C(=O)NCc4c(C)nc5[nH]ccc(C)c4-5)c3)cc2)c1 [Example 12, N-({2,4-Dimethyl-7H-pyrrolo[2,3-b]pyridin-3-yl}methyl)-5-({4-[(4-methylpyrazol-1-yl)methyl]phenyl}methyl)pyridine-3-carboxamide]	14900 nM	244 nM
Cc1ccc2cc(Cc3cncc(C(=O)NCc4c(C)nc5[nH]ccc(C)c4-5)c3)ccc2n1 [Example 13, N-({2,4-Dimethyl-7H-pyrrolo[2,3-b]pyridin-3-yl}methyl)-5-[(2-methylquinolin-6-yl)methyl]pyridine-3-carboxamide]	236 nM	923 nM
Nc1nccc2cc(CNC(=O)c3ccc(=O)n(Cc4csc(-c5ccccc5)n4)c3)ccc12 [Example 14, N-[(1-Aminoisoquinolin-6-yl)methyl]-6-oxo-1-[(2-phenyl-1,3-thiazol-4-yl)methyl]pyridine-3-carboxamide]	4160 nM	2670 nM
Cc1cnn(Cc2ccc(Cn3cc(C(=O)NCc4ccc5c(N)nccc5c4)ccc3=O)cc2)c1 [Example 15, N-[(1-Aminoisoquinolin-6-yl)methyl]-1-({4-[(4-methylpyrazol-1-yl)methyl]phenyl}methyl)-6-oxopyridine-3-carboxamide]	17600 nM	159 nM
Cc1ccc2cc(Cn3cc(C(=O)NCc4ccc5c(N)nccc5c4)ccc3=O)ccc2n1 [Example 16, N-[(1-Aminoisoquinolin-6-yl)methyl]-1-[(2-methylquinolin-6-yl)methyl]-6-oxopyridine-3-carboxamide]	2060 nM	179 nM
Cc1ccc2cc(Cc3cncc(C(=O)NCc4ccc5c(N)nccc5c4)c3)ccc2n1 [Example 17, N-[(1-Aminoisoquinolin-6-yl)methyl]-5-[(2-methylquinolin-6-yl)methyl]pyridine-3-carboxamide]	1120 nM	27.5 nM
COc1ncc(C(=O)NCc2ccc3c(N)nccc3c2)cc1Cc1ccc2nc(C)ccc2c1 [Example 18, N-[(1-Aminoisoquinolin-6-yl)methyl]-6-methoxy-5-[(2-methylquinolin-6-yl)methyl]pyridine-3-carboxamide]	1740 nM	702 nM
COc1ncc(Cc2ccc3nc(C)ccc3c2)cc1C(=O)NCc1ccc2c(N)nccc2c1 [Example 19, N-[(1-Aminoisoquinolin-6-yl)methyl]-2-methoxy-5-[(2-methylquinolin-6-yl)methyl]pyridine-3-carboxamide]	1210 nM	434 nM
Cc1ccc2cc(Cc3cnc(O)c(C(=O)NCc4ccc5c(N)nccc5c4)c3)ccc2n1 [Example 20, N-[(1-Aminoisoquinolin-6-yl)methyl]-5-[(2-methylquinolin-6-yl)methyl]-2-oxo-1H-pyridine-3-carboxamide]	2490 nM	621 nM
CNc1ncc(C(=O)NCc2ccc3c(N)nccc3c2)cc1Cc1ccc2nc(C)ccc2c1 [Example 21, N-[(1-Aminoisoquinolin-6-yl)methyl]-6-(methylamino)-5-[(2-methylquinolin-6-yl)methyl]pyridine-3-carboxamide]	5990 nM	53.3 nM
Cc1ccc2cc(Cc3cnc(C)c(C(=O)NCc4ccc5c(N)nccc5c4)c3)ccc2n1 [Example 22, N-[(1-Aminoisoquinolin-6-yl)methyl]-2-methyl-5-[(2-methylquinolin-6-yl)methyl]pyridine-3-carboxamide]	484 nM	104 nM
Nc1nccc2cc(CNC(=O)c3cncc(Cc4ccccc4)c3)ccc12 [Example 23, N-[(1-Aminoisoquinolin-6-yl)methyl]-5-benzylpyridine-3-carboxamide]	32700 nM	40000 nM
Nc1nccc2cc(CNC(=O)c3cncc(Cc4csc(-c5ccccc5)n4)c3)ccc12 [Example 24, N-[(1-Aminoisoquinolin-6-yl)methyl]-5-[(2-phenyl-1,3-thiazol-4-yl)methyl]pyridine-3-carboxamide]	4000 nM	1710 nM
COc1cccc(Cc2cncc(C(=O)NCc3ccc4c(N)nccc4c3)c2)c1 [Example 25, N-[(1-Aminoisoquinolin-6-yl)methyl]-5-[(3-methoxyphenyl)methyl]pyridine-3-carboxamide]	6170 nM	2640 nM
COc1ccc(Cc2cncc(C(=O)NCc3ccc4c(N)nccc4c3)c2)cc1 [Example 26, N-[(1-Aminoisoquinolin-6-yl)methyl]-5-[(4-methoxyphenyl)methyl]pyridine-3-carboxamide]	> 40000 nM	941 nM
Nc1nccc2cc(CNC(=O)c3cncc(CN4CCN(c5ccccc5)CC4)c3)ccc12 [Example 39, N-[(1-Aminoisoquinolin-6-yl)methyl]-5-[(4-phenylpiperazin-1-yl)methyl]pyridine-3-carboxamide]		10000 nM
